Reference: patent US4824862A, “3-phenyl-2-styrylpyrrolidines, preparation and use thereof” (BASF Aktiengesellschaft, priority 1987, dated 1989)

Tests used:
Assay type in all cases: biochemical
[1] = tested on: Serotonin uptake (3H-serotonin, cortex synaptosomes); experiment: Inhibition of serotonin uptake in rat brain synaptosomes (cortex); details: 37° C., read-out: Inhibition of neurotransmitter uptake in synaptosomes, Serotonin IC 50
From the text: (§1) The mode of action of a group of therapeutically frequently used antidepressants (for example tricyclic antidepressants) include the inhibition of the neuronal uptake of transmitter substances (norepinephrine, dopamine, serotonin). This property is utilized in biological test models to characterize potential antidepressants.
(§2) The following method was used: Inhibition of neurotransmitter uptake in rat brain synaptosomes
(§3) Hippocampus, corpus striatum and cortex of rat brains were dissected out and homogenized in 0.32M sucrose solution. Differential centrifugation gave synaptosomes which were suspended in buffer solution. Synaptosomes are capable of actively taking up added neurotransmitter substances (for example norepinephrine, dopamine, serotonin) from the surrounding medium. With the aid of uptake inhibitors it is possible to counteract this process to a degree which depends on the concentration. The synaptosomes were mixed with the test substances in various concentrations and then incubated at 37° C. with ^3 H-norepinephrine (hippocampus), ^3 H-dopamine (corpus striatum) and ^3 H-serotonin (cortex). The substrate concentration was about […]. The uptake was determined by dilution with ice-cold buffer solution; thereafter the synaptosomes were separated off by centrifugation, and the ^3 H activity was measured in the sediment. A blank value was determined by incubating at 0° C.
(§4) The median inhibitory concentration (IC 50) was calculated from the inhibitor values found for the various inhibitor concentrations by comparison with the blank test by linear regression following logit-log conversion.

[2] = tested on: Norepinephrine uptake (3H-norepinephrine, hippocampus synaptosomes); experiment: Inhibition of norepinephrine uptake in rat brain synaptosomes (hippocampus); details: for IC50: rat hippocampus synaptosomes, 3H-norepinephrine, 37° C., read-out: Inhibition of neurotransmitter uptake in synaptosomes, Norepinephrine IC 50
From the text: as §1, §2, §3, §4

[3] = tested on: Dopamine uptake (3H-dopamine, corpus striatum synaptosomes); experiment: Inhibition of dopamine uptake in rat brain synaptosomes (corpus striatum); details: for IC50: rat corpus striatum synaptosomes, 3H-dopamine, 37° C., read-out: Inhibition of neurotransmitter uptake in synaptosomes, Dopamine IC 50
From the text: as §1, §2, §3, §4

| SMILES | IC50 [1] [nM] | IC50 [2] [nM] | IC50 [3] [nM] | potency of inhibition of noradrenaline uptake compared with imipramine, in words [2] | inhibition of dopamine uptake, in words ([3]; qualitative statement) |
| --- | --- | --- | --- | --- | --- |
| CN1CC[C@@H](c2ccccc2)[C@H]1/C=C/c1ccccc1 (relative stereo) [Example 1 cis, cis-3-phenyl-2-trans-styryl-N-methylpyrrolidine] | > 1000 | 29 | 120 | – | – |
| CN1CC[C@@H](c2ccccc2)[C@@H]1/C=C/c1ccccc1 (relative stereo) [Example 1 trans, trans-3-phenyl-2-trans-styryl-N-methylpyrrolidine] | > 1000 | 7.3 | 92 | appreciably exceeded by the compounds according to the invention | – |
| CCN1CC[C@@H](c2ccccc2)[C@H]1/C=C/c1ccccc1 (relative stereo) [Example 2 cis, cis-3-phenyl-2-trans-styryl-N-ethylpyrrolidine] | > 1000 | 43 | 180 | – | – |
| CCN1CC[C@@H](c2ccccc2)[C@@H]1/C=C/c1ccccc1 (relative stereo) [Example 2 trans, trans-3-phenyl-2-trans-styryl-N-ethylpyrrolidine] | > 1000 | 5.5 | 23 | appreciably exceeded by the compounds according to the invention | – |
| CCCN1CC[C@@H](c2ccccc2)[C@H]1/C=C/c1ccccc1 (relative stereo) [Example 3 cis, cis-3-phenyl-2-trans-styryl-N-n-propylpyrrolidine] | > 1000 | – | – | – | – |
| CCCN1CC[C@@H](c2ccccc2)[C@@H]1/C=C/c1ccccc1 (relative stereo) [Example 3 trans, trans-3-phenyl-2-trans-styryl-N-n-propylpyrrolidine] | > 1000 | 160 | 400 | – | – |
| CN(C)CCCN1c2ccccc2CCc2ccccc21 [Imipramine, reference compound] | 130 | 14 | > 1000 | – | not possessed by imipramine |
